# Laboratory results from patent US10562891B2, “Quinazolinones as PARP14 inhibitors” (Ribon Therapeutics Inc., priority 2017, dated 2020).
# pIC50: −log10 of the molar value. Counter-ions that a name gives are not always drawn.
# Target: catalytic domain of human PARP14 (Homo sapiens (Human), UniProt Q460N5)
# Experiment: Enzymatic assay for inhibition of PARP14 (DELFIA, auto-modification with biotin-NAD)
# Type: biochemical
# Conditions: auto-modification of PARP14 by biotin-NAD, 50 nM PARP14, 3 μM biotin-NAD
# Procedure, shortened: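 DELFIA auto-modification read-out: europium-streptavidin bound to biotin-NAD incorporated onto nickel-captured His-TEV PARP14 catalytic domain. Compound preincubated 30 min, then 50 nM enzyme with 3 μM biotin-NAD reacted 3 h, all at 25 °C, pH 8, then NAD quench. Percent inhibition normalized to rucaparib/DMSO wells, fitted (4- or 3-parameter) for IC50.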
# Sequence of catalytic domain of human PARP14 (Q460N5 1611-1801): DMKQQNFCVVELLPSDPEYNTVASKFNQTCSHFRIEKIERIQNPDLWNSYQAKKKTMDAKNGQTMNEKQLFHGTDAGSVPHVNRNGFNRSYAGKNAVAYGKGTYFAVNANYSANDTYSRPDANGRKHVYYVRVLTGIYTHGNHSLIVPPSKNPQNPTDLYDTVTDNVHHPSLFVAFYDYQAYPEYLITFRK
row,SMILES,pIC50
1,"Cc1cccc2c(=O)[nH]c(CSC3CCN(Cc4ccc(C#N)cc4)CC3)nc12 [Example 141, 4-((4-(((8-Methyl-4-oxo-3,4-dihydroquinazolin-2-yl)methyl)thio)piperidin-1-yl)methyl)benzonitrile trifluoroacetate]",5.00 to 6.00
2,"O=c1[nH]c(CS[C@@H]2CCNCC2F)nc2cc(OCC3CC3)cc(F)c12 (stereo in doubt) [Example 295, 7-(Cyclopropylmethoxy)-5-fluoro-2-(((cis-3-fluoropiperidin-4-yl)thio)methyl)quinazolin-4(3H)-one hydrochloride]",> 6.00
3,"CNc1ccc2c(=O)[nH]c(CSC3CCOCC3)nc2c1 [Example 110, 7-(Methylamino)-2-(((tetrahydro-2H-pyran-4-yl)thio)methyl)quinazolin-4(3H)-one]",5.00 to 6.00
4,"CC(=O)N1CCC(SCc2nc3cc(N[C@@H]4CCCN(S(C)(=O)=O)C4)ccc3c(=O)[nH]2)CC1 [Example 268, (R)-2-(((1-acetylpiperidin-4-yl)thio)methyl)-7-((1-(methylsulfonyl)piperidin-3-yl)amino)quinazolin-4(3H)-one]",> 6.00
5,"Cc1ccc(F)c2c(=O)[nH]c(CSC3CCNCC3)nc12 [Example 51, 5-Fluoro-8-methyl-2-((piperidin-4-ylthio)methyl)quinazolin-4(3H)-one Hydrochloride]",> 6.00
6,"Cc1cccc2c(=O)[nH]c(CS[C@H]3CC[C@@H](N)CC3)nc12 [Example 50, 2-(((cis-4-Aminocyclohexyl)thio)methyl)-8-methylquinazolin-4(3H)-one Trifluoroacetic Acid]",5.00 to 6.00
7,"O=C(Nc1ccccc1)c1ccc2c(=O)[nH]c(CSC3CCOCC3)nc2c1 [Example 78, 4-Oxo-N-phenyl-2-(((tetrahydro-2H-pyran-4-yl)thio)methyl)-3,4-dihydro Quinazoline-7-carboxamide]",< 5.00
8,"O=c1[nH]c(CSC2CCOCC2)nc2cc(OCC3CC3)ccc12 [Example 219, 7-(Cyclopropylmethoxy)-2-(((tetrahydro-2H-pyran-4-yl)thio)methyl)quinazolin-4(3H)-one]",> 6.00
9,"Cc1cccc2c(=O)[nH]c(CSC3CCN(Cc4cnn(Cc5ccccc5)c4)CC3)nc12 [Example 154, 2-(((1-((1-Benzyl-1H-pyrazol-4-yl)methyl)piperidin-4-yl)thio)methyl)-8-methylquinazolin-4(3H)-one trifluoroacetate]",> 6.00
10,"Cc1cccc2c(=O)[nH]c(CSC3CCNC3)nc12 (stereo not shown) [Example 15, 8-Methyl-2-((pyrrolidin-3-ylthio)methyl)quinazolin-4(3H)-one trifluoroacetate]",5.00 to 6.00

# Continued, values first:
row,pIC50,SMILES
1,> 6.00,CCC(=O)N1CCC(COc2cc(F)c3c(=O)[nH]c(CSC4CCOCC4)nc3c2)CC1 [Example 398]
2,> 6.00,O=c1[nH]c(CSC2CCS(=O)(=O)CC2)nc2cc(NCC3CCC3)c(F)c(F)c12 [Example 339]
3,> 6.00,CO[C@H]1CC[C@@H](SCc2nc3cc(OCC4CCOCC4)cc(F)c3c(=O)[nH]2)CC1 [Example 357]
4,> 6.00,"O=c1[nH]c(CSC2CCOCC2)nc2cc(OCC3CC3)cc(F)c12 [Example 291, 7-(Cyclopropylmethoxy)-5-fluoro-2-(((tetrahydro-2H-pyran-4-yl)thio)methyl)quinazolin-4(3H)-one]"
5,> 6.00,"O=c1[nH]c(CSC2CCOCC2)nc2cc(OCC3CCOC3)cc(F)c12 (stereo not shown) [Example 238, 5-Fluoro-2-(((tetrahydro-2H-pyran-4-yl)thio)methyl)-7-((tetrahydrofuran-3-yl)methoxy)quinazolin-4(3H)-one]"
6,> 6.00,"O=c1[nH]c(CSC2CCNCC2)nc2cc(NCC3CC3(F)F)cc(F)c12 (stereo not shown) [Example 262, 7-(((2,2-Difluorocyclopropyl)methyl)amino)-5-fluoro-2-((piperidin-4-ylthio)methyl)quinazolin-4(3H)-one]"
